Series [1] is described as follows: Toxicity against human type A red blood cells assessed as hemolytic activity at 80 uM after 1 ht. As to conditions: read-out: Activity. It counts as cell-based, Erythrocyte.
Series [2] in a line: Toxicity against human type A red blood cells assessed as hemolytic activity after 1hr. As to conditions: read-out: HD50. It counts as cell-based, Erythrocyte.

Three compounds from ChEMBL document CHEMBL1157218, “Cycloviolacin H4, a hydrophobic cyclotide from Viola hederaceae” (J Nat Prod, 2006) can be followed below.

Molecules are shown by their SMILES. Bridge positions count the residues as written; N and C are the ends. Peptide text beside a SMILES is read from it.

On to `CC[C@H](C)[C@@H]1NC(=O)[C@H]([C@@H](C)O)NC(=O)CNC(=O)CNC(=O)[C@H](CC(N)=O)NC(=O)[C@H]([C@@H](C)O)NC(=O)CNC(=O)[C@H](Cc2ccc(O)cc2)NC(=O)[C@@H]2CSSC[C@@H]3NC(=O)[C@H]([C@@H](C)O)NC(=O)CNC(=O)[C@H](CC(C)C)NC(=O)[C@H](Cc4ccccc4)NC(=O)[C@@H]4CSSC[C@H](NC(=O)[C@H](CO)NC(=O)[C@H](CSSC[C@H](NC(=O)[C@H](CC(=O)O)NC(=O)[C@H](Cc5ccccc5)NC1=O)C(=O)NCC(=O)N[C@@H](CCC(=O)O)C(=O)N[C@@H](CO)C(=O)N4)NC(=O)CNC(=O)[C@H](CCCCN)NC(=O)[C@H]([C@@H](C)O)NC(=O)[C@H](Cc1ccc(O)cc1)NC3=O)C(=O)NCC(=O)N[C@@H](CCC(=O)O)C(=O)N[C@@H](Cc1c[nH]c3ccccc13)C(=O)N[C@@H](CCCCN)C(=O)N[C@@H](CC(C)C)C(=O)N2` [TRICYCLON A] (cyclo(CFLGTCYTKGCSCGEWKLCYGTNGGTIFDCGES); disulfide 1-13, 6-19, 11-30), for which the hemolysis at 1 h, 80 µM in series [1] is 2%.

Turning to `CC[C@H](C)[C@@H]1NC(=O)CNC(=O)[C@H](CC(N)=O)NC(=O)[C@H](Cc2ccc(O)cc2)NC(=O)[C@@H]2CSSC[C@@H]3NC(=O)[C@@H]4CCCN4C(=O)[C@H]([C@@H](C)CC)NC(=O)[C@H](Cc4c[nH]c5ccccc45)NC(=O)[C@H](C(C)C)NC(=O)[C@@H]4CSSC[C@H](NC(=O)[C@H](CO)NC(=O)[C@H](CSSC[C@H](NC(=O)[C@@H]5CCCN5C1=O)C(=O)N[C@@H](C)C(=O)N[C@@H](CCC(=O)O)C(=O)N[C@@H](CO)C(=O)N4)NC(=O)CNC(=O)[C@H](CC(C)C)NC(=O)[C@H](CC(C)C)NC(=O)[C@H](C)NC(=O)[C@H]([C@@H](C)O)NC(=O)[C@H](C(C)C)NC(=O)[C@H]([C@@H](C)O)NC3=O)C(=O)N[C@@H](CO)C(=O)N[C@@H](CC(N)=O)C(=O)N[C@@H](CC(N)=O)C(=O)N[C@@H](C(C)C)C(=O)N2` [cycloviolacin H4] (cyclo(AESCVWIPCTVTALLGCSCSNNVCYNGIPC); disulfide 4-19, 9-24, 17-30), the HC50 at 1 h in series [2] was found to be 5.5 µM.

On to `CC(C)C[C@@H]1NC(=O)CNC(=O)[C@H](CC(N)=O)NC(=O)[C@H](CCCNC(=N)N)NC(=O)[C@H]([C@@H](C)O)NC(=O)[C@@H]2CSSC[C@@H]3NC(=O)[C@H]([C@@H](C)O)NC(=O)CNC(=O)CNC(=O)[C@H](C(C)C)NC(=O)[C@@H]4CSSC[C@H](NC(=O)[C@H]([C@@H](C)O)NC(=O)[C@H](CSSC[C@H](NC(=O)[C@H](C(C)C)NC(=O)[C@@H]5CCCN5C1=O)C(=O)NCC(=O)N[C@@H](CCC(=O)O)C(=O)N[C@@H]([C@@H](C)O)C(=O)N4)NC(=O)CNC(=O)[C@@H]1CCCN1C(=O)[C@H]([C@@H](C)O)NC(=O)[C@H](CC(N)=O)NC3=O)C(=O)N[C@@H](CO)C(=O)N[C@@H](Cc1c[nH]c3ccccc13)C(=O)N1CCC[C@H]1C(=O)N[C@@H](C(C)C)C(=O)N2` [KALATA B1], for which, in series [2], the HC50 at 1 h stood at 12.7 µM.
